# Experimental data taken from patent US11207289B2, “Use of benzofuran lignans to induce IL-25 expression and suppress mammary tumor metastasis” (ACADEMIA SINICA, priority 2016, dated 2021).
# Assays:
# [1] = system: mouse IL-25; test: 3-D culture, western blot of IL-25 in 3T3 fibroblasts and 3T3-CM; assay type: cell-based
# Method: To mimic the tumor microenvironment, a 3-dimensional (3-D) co-culture system was employed for the maintenance of mammary tumor cells and tumor-associated fibroblasts in adjacent collagen gels as reported in Rajan et al., Nature protocols, 1, 2753-2758 (2006). More specifically, rat tail collagen solution dissolved in acetic acid was neutralized by 1 N NaOH and then mixed with 10×PBS at 4° C. in a ratio of 9:1. To construct solid tumor-like cell mass, mouse (4T1 or TS/A cells) or human (MCF-7 or MDA-MB-231 cells) mammary tumor cells in each correspondent culture medium (1×10^6 cells/ml) were mixed with 4 mg/ml collagen solution in a ratio of 1:1. Four drops of collagen-tumor cell mixture ([…]) were immediately and separately loaded on culture substratum in each well of a 6-well plate. The plates were then turned-over and kept in CO2 incubator at 37° C. for collagen gelation. […]
# To pull down and deplete IL-25 protein molecules in 3T3 or MDA-MB-231 cell conditioned media, the Dynabeads antibody coupling kit (Life Technology; 14311D) was used according to the manufacturer's recommendations, yielding 10 mg/ml anti-IL25 antibody (ProteinTech, Chicago, Ill.)-coupled beads. […] The antibody-pulled down proteins from 3T3-CM, NHDF-CM or WI38-CM, were detected for the content of secreted IL-25 protein in each conditioned medium using western blot analysis. […]
# [2] = system: SKBR3 cells; test: MTT assay, cytotoxic effect on SKBR3; assay type: cell-based, human
# Method: (§1) M10, WI38, SKBR3, and MDA-MB-231 cells (1×10^5 cells/ml) dispensed in 96-well plates were incubated with vehicle or test compounds (Q2-3) for 24 h or 72 h in corresponding basal medium in a 5% CO2 incubator. To evaluate the effect of secreted IL-25 from Q2-3-treated fibroblasts on growth activity of mammary tumor cells, 4T1 and MDA-MB-231 cells (1×10^4 cells/ml) dispensed in 96-well plates were incubated with control medium or different fibroblast conditioned media (200 μl/ml) which was changed daily for 5 days. All treatments were performed in triplicate cell cultures. The growth activity of cells was assayed using a 3-(4, 5-dimethythiazol-2-yl)-2, 5-diphenyl tetrazolium bromide (MTT; Sigma-Aldrich) colorimetric method. The absorbance at 570 nm (A570) was measured using a multiwall scanning spectrophotometer.
# (§2) FIG. 1 is a schematic depiction of cytotoxic effects of dihydrobenzofuran lignan (Q2-3) on breast tumor cells. (a): Scheme for synthesis of Q2-3 (methyl (E)-3-[2-(3,4-dihydroxyphenyl)-7-hydroxy-3-methoxycarbonyl-2,3-dihydro-1-benzofuran-5yl]prop-2-enoate) from two caffeic acid methyl ester molecules. (b) and (c): MTT assays for cytotoxic effect of Q2-3 on SKBR3 (ER^−Her^+ human breast cancer cell line), MDA-MB-231 (ER^−Her^− human breast cancer cell line), M10 (human normal epithelial cell line) and WI38 (human lung fibroblast cell line). 2×10^4 cells were seeded and compared for their growth activity after treatment with Q2-3 for 24 or 72 h. The beginning cytotoxic dosage of Q2-3 was detected at 0.3 μM, with >50% kill rate on SKBR3 and MDA-MB-231 cells.
# (§3) The effects of Q2-3 on cell viability were tested on four different cell lines, i.e., normal human mammary epithelial (M10), normal human […] (WI38), and two human mammary tumor cells (SKBR3 and MDA-MB-231), by treating cells with Q2-3 at various concentrations for 24 h (FIG. 1b) and 72 h (FIG. 1c).
# [3] = system: MCF-7 cells; conditions: cited from earlier work
# [4] = system: MDA-MB-231 cells; test: MTT assay, cytotoxic effect on MDA-MB-231; assay type: cell-based, human
# Method: as §1, §2, §3
compound,measurement,setting,value
"COC(=O)/C=C/c1cc(O)c2c(c1)C(C(=O)OC)C(c1ccc(O)c(O)c1)O2 (stereo not drawn) [Q2-3, methyl(E)-3-[2-(3,4-dihydroxyphenyl)-7-hydroxy-3-methoxycarbonyl-2,3-dihydro-1-benzofuran-5yl]-prop-2-enoate]",expression of IL-25 in mouse (3T3) fibroblasts,"[1]; 3-D culture, treatment 24 h or 72 h",increased
same,level of secreted IL-25 in fibroblast-conditioned medium vs untreated,[1]; 3T3-CM,significantly higher
same,inhibition at 0.5 µM,"[2]; Homo sapiens, SK-BR-3, ≥0.5 μM, 24 h and 72 h, vs 0.1% DMSO control, read-out: growth inhibition",≥ 60%
same,kill rate,[2]; at 0.3 μM,> 50%
same,beginning cytotoxic dosage,[2]; treatment 24 or 72 h,0.3 µM
same,anti-proliferation effect,[3],significant anti-proliferation effect
same,inhibition at 0.5 µM,"[4]; Homo sapiens, ≥0.5 μM, 24 h and 72 h, vs 0.1% DMSO control, read-out: growth inhibition",≥ 60%
same,kill rate,[4]; at 0.3 μM,> 50%
same,beginning cytotoxic dosage,[4]; treatment 24 or 72 h,0.3 µM
